Values quoted from earlier work in PMC3161514 (Chemistry & biology, 2011).

What was measured:
[1] = system: vancomycin-resistant Enterococci (VRE); details: MIC values among the lowest reported for lantibiotics, ref Ekkelenkamp, et al., 2005, Verhoef
[2] = system: methicillin-resistant S. aureus (MRSA); details: MIC values among the lowest reported for lantibiotics, ref Ekkelenkamp, et al., 2005, Verhoef
[3] = system: several strains of S. aureus; details: against several strains of S. aureus; ref Castiglione, et al., 2008

| Substance | Activity against VRE [1] | Activity against MRSA [2] | Potency relative to epidermin [3] |
| --- | --- | --- | --- |
| epilancin 15X | active | active |  |
| microbisporicin |  |  | two orders of magnitude more potent |
